The target of assay [1] is T1, human 5-HT1A receptor (Homo sapiens, UniProt P08908).
T1 construct: expressed in transfected cells
T1 sequence (P08908 1-422): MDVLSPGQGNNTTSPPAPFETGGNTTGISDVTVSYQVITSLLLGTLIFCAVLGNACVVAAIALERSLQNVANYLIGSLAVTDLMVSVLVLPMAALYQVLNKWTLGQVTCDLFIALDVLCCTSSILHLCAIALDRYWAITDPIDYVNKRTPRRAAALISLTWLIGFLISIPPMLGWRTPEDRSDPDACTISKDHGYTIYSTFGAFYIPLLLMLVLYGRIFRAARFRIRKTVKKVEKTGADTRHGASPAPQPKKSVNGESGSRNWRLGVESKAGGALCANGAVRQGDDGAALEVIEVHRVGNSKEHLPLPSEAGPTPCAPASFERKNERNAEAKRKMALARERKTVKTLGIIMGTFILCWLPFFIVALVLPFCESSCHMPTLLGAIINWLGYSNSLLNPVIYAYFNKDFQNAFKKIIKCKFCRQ
Description: 5-HT1A receptor binding, [3H]8-OH-DPAT displacement in membranes of CHO cells expressing the human receptor. The settings on record: 5-HT1A.CHO membranes; for Ki: [3H]8-OH-DPAT 1.5 nM, 30 min, room temperature; for inhibition at 0.1 µM: at .1 μM, [3H]8-OH-DPAT, read-out: 5-HT1A (% Inh. @ .1 μM). As for the experimental part:
(§1) The PCR cloning of the human ^5 -HT1A receptor subtype from a human genomic library has been described previously by Chanda et al., Mol. Pharmacol., 43:516 (1993). A stable Chinese hamster ovary cell line expressing the human S-HT1A receptor subtype (5-HT1A.CHO cells) was employed throughout this study. Cells were maintained in DMEM supplemented with 10% fetal calf serum, non-essential amino acids and penicillin/ streptomycin.
Cells were grown to 95-100% confluency as a monolayer before membranes were harvested for binding studies. Cells were gently scraped from the culture plates, transferred to centrifuge tubes, and washed twice by centrifugation (2000 rpm for 10 min., 4° C.) in buffer (50 mM Tris; pH 7.5). The resulting pellets were aliquoted and placed at -80.C. On the day of assay, the cells were thawed on ice, and resuspended in buffer. Studies were conducted using [^3 H]8-OH-DPAT as the radioligand. The binding assay was performed in 96 well mnicrotiter plates in a final total volume of 250 μL of buffer. Comparison experiments were performed by using 7 concentrations of unlabelled drug and a final ligand concentration of 1.5 nM . Non-specific binding was determined in the presence of 10 μM 5HT. Saturation analysis was conducted by using [^3 H]8-OH-DPAT at concentrations ranging from 0.3-30 nM. Following a 30 minute incubation at room temperature, the reaction was terminated by the addition of ice cold buffer and rapid filtration using a M-96 Brandel Cell Harvester Gaithersburg, Md.) through a GF/B filter presoaked for 30 minutes in 0.5% polyethyleneimine.

In the next assay the target is T2, serotonin transporter (Rattus norvegicus, UniProt P31652).
T2 construct: frontal cortical membranes prepared from male Sprague-Dawley rats; from tissue; host or cells: frontal cortical membranes of male Sprague-Dawley rats
T2 sequence (P31652 whole entry): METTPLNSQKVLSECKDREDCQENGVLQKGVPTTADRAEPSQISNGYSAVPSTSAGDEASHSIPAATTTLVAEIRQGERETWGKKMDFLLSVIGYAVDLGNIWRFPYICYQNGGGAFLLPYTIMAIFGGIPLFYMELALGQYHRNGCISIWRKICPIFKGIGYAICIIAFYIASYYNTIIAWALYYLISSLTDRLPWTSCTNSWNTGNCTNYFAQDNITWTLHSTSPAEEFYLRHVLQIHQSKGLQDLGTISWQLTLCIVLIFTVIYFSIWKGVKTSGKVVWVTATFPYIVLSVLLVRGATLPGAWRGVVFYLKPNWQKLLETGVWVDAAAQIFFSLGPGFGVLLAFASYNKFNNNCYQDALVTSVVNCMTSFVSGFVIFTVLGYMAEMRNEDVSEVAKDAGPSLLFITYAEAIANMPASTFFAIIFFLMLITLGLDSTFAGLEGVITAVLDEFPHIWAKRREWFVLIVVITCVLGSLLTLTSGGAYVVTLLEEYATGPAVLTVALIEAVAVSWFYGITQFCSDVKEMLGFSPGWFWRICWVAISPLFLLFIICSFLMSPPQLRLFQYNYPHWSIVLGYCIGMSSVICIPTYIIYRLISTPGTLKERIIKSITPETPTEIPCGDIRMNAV
The experiment in a line: serotonin transporter (ST) binding, 3H-paroxetine displacement in rat frontal cortical membranes. Set-up: species or system rat (male Sprague-Dawley). As for the experimental part: A protocol similar to that used by Cheetham et al., Neuropharmacol. , 32:737 (1993) was used to determine the affinity of compounds for the serotonin transporter. Briefly, frontal cortical membranes prepared from male Sprague-Dawley rats were incubated with ^3 H-paroxetine (0.1 nM) for 60 min at 25° C. All tubes also contained either vehicle, test compound (one to eight concentrations), or a saturating concentration of fluoxetine (10 μM) to define […]. All reactions were terminated by the addition of ice cold Tris buffer followed by rapid filtration using a Tom Tech filtration device to separate bound from free ^3 H-paroxetine. Bound radioactivity was quantitated using a Wallac 1205 Beta Plate® counter. Nonlinear regression analysis was used to determine IC50 values which were converted to Ki values using the method of Cheng and Prusoff, Biochem. Pharmacol., 22:3099 (1973); Ki=IC50/((Radioligand conc.)/(1+KD)).

In assay [2] the target is T1, human 5-HT1A receptor. The experiment in a line: [35S]-GTPγS binding in 5-HT1A cloned receptor membrane fragments. The settings on record: [35S]GTPγS 1 nM, 30 min, 30° C.; excess 8-OH-DPAT defines maximum agonist response. In kind it is biochemical.
Excerpt: as §1
The [^35 S]-GTPγS binding assay was similar to that used by Lazareno and Birdsall, Br. J. Pharmacol. 109:1120 (1993). Briefly, 5-HT1A cloned receptor membrane fragments (as used for 5-H1A receptor binding assays) were stored at -70° C. until needed. When needed, membranes were rapidly thawed, centrifuged at 40,000×g for 10 minutes and resuspended at 4° C. for 10 minutes in assay buffer (25 mM HEPES, 3 mM MgCl2, 100 mnM NaCl, 1 mM EDTA, 10 uM GDP, […] DTT, pH 8.0). These membranes were then incubated for 30 min at 30° C. with [^35 S]GTPgS (1 nM) in the presence of vehicle, test compound (one to eight concentrations), or excess 8-OH-DPAT to define maximum agonist response. All reactions are terminated by the addition of ice cold Tris buffer followed by rapid filtration using a Tom Tech® filtration device to separate bound from free [^35 S]GTPgS. Agonists produce an increase in the amount of [^35 S]GTPgS bound whereas antagonists produce no increase in binding. Bound radioactivity was counted and analyzed as above.
For orientation: GTPγS is a poorly hydrolysed GTP analogue; its binding reports G protein activation.

Setting [3] is: 3H-paroxetine 0.1 nM, 60 min, 25° C., rat frontal cortical membranes, IC50 converted to Ki (Cheng-Prusoff), read-out: ST (Ki).

Each structure is given as a SMILES string. Read-outs that look alike come from different tables or passages of the source.

The record followed here is patent US6221863A, “3,4-dihydro-2H-benzo[1,4]oxazine derivatives” (American Home Products Corp., priority 1999, dated 2001).

As for `COc1cccc2c1OC(CN1CC=C(c3c[nH]c4ccc(F)cc34)CC1)CN2` (centres unmarked) [Example 1, 2-[4-(5-Fluoro-1H-indol-3-yl)-3,6-dihydro-2H-pyridin-1-ylmethyl]-8-methoxy-3,4-dihydro-2H-benzo[1,4]oxazine], the Ki (commonly the equilibrium dissociation constant of an inhibitor or competing ligand from its target) at human 5-HT1A receptor [1] is 155 nM; at serotonin transporter, 3.7 nM. Besides, the Emax (as a rule, the maximal effect, on the per cent scale that the assay sets) at human 5-HT1A receptor [2] is 10%.
As to `COc1cccc2c1OC(CN1CC=C(c3c[nH]c4ccc(F)cc34)CC1)CN2C` (centres unmarked) [Example 2, 2-[4-(5-Fluoro-1H-indol-3-yl)-3,6-dihydro-2H-pyridin-1-ylmethyl]-8-methoxy-4-methyl-3,4-dihydro-2H-benzo[1,4]oxazine], the Ki on human 5-HT1A receptor [1] stood at 140 nM; at serotonin transporter, 8.5 nM. The same molecule had an Emax at human 5-HT1A receptor [2] of 97%.
Regarding `CCN1CC(CN2CC=C(c3c[nH]c4ccc(F)cc34)CC2)Oc2c(OC)cccc21` (centres unmarked) [Example 3, 2-[4-(5-Fluoro-1H-indol-3-yl)-3,6-dibydro-2H-pyridin-1-ylmetbyl]-8-methoxy-4-ethyl-3,4-dihydro-2H-benzo[1,4]oxazine], the Ki at human 5-HT1A receptor [1] is 137 nM; on serotonin transporter it was 12 nM. For the same molecule, the Emax at human 5-HT1A receptor [2] came to 62%.
As to `CCCN1CC(CN2CC=C(c3c[nH]c4ccc(F)cc34)CC2)Oc2c(OC)cccc21` (centres unmarked) [Example 4, 2-[4-(5-Fluoro-1H-indol-3-yl)-3,6-dihydro-2H-pyridin-1-ylmethyl]-8-methoxy-4-propyl-3,4-dihydro-2H-benzo[1,4]oxazine], the Ki at human 5-HT1A receptor [1] was 363 nM; at serotonin transporter, 20 nM. The maximal response (Emax) at human 5-HT1A receptor [2] was 100%.
With `C1=C(c2c[nH]c3ccccc23)CCN(CC2CNc3ccccc3O2)C1` (centres unmarked) [Example 5, 2-[4-(1H-Indol-3-yl)-3,6-dihydro-2H-pyridin-1-ylmethyl]-3,4-dihydro-2H-benzo[1,4]oxazine], the inhibition constant (Ki) amounted to 805 nM at human 5-HT1A receptor [1] and 0.74 nM at serotonin transporter (setting [3]). Further, at human 5-HT1A receptor [2], the Emax amounted to 57%.
`C1=C(c2c[nH]c3ncccc23)CCN(CC2CN(c3ccccc3)c3ccccc3O2)C1` (centres unmarked) [Example 6, 4-Phenyl-2-[4-(1H-pyrrolo[2,3,b]pyridin-3yl)-3,6-dihydro-2H-pyridin-1-ylmethyl]-3,4-dihydro-2H-benzo[1,4]oxazine]: the inhibition at 0.1 µM on human 5-HT1A receptor [1] was 20%. This molecule also displayed a Ki at serotonin transporter of 106 nM. In addition, on human 5-HT1A receptor [2], the Emax came to 0%.
As for `COc1cccc2c1OC(CN1CC=C(c3c[nH]c4ccc(F)cc34)CC1)CN2c1ccc(C(F)(F)F)cc1` (centres unmarked) [Example 7, 2-[4-(5-Fluoro-1H-Indol-3-yl)-3,6-dihydro-2H-pyridin-1-ylmethyl]-8-methoxy-4-(4-trifluoromethyl-phenyl)-3,4-dihydro-2H-benzo[1,4]oxazine], the inhibition at 0.1 µM on human 5-HT1A receptor [1] was 0%. For the same molecule, the Ki at serotonin transporter (setting [3]) amounted to 505 nM.
